Assay [1] has as its target T1, Aβ42 peptide (Homo sapiens, UniProt P05067).
T1 construct: expressed in transfected cells; host or cells: E. coli BL21 (DE3), pET28a vector
In words: Inhibition of Aβ42 aggregation in intact E. coli cells, thioflavin-S staining. It is filed as cell-based, Escherichia coli. Particulars: [I] = 100 µM, E. coli cells overexpressing Aβ42. The protocol:
For compounds 12, 14 and 18, the inhibitory activity against Aβ42 and tau aggregation was evaluated. The anti-aggregating effect of tested compounds was monitored by a cell-based assay in intact Escherichia coli cells that overexpress either Aβ42 peptide or tau protein, which, upon expression, form insoluble inclusion bodies that were stained with thioflavin-S [42]. The percentages of inhibition towards Aβ42 and tau aggregation were determined at an inhibitor concentration of 100 µM and the obtained results are reported in Table 6. In general, these compounds show a weak anti-aggregating activity; among these, the pyridine carbamate 18 is the best inhibitor of aggregation of both Aβ42 and tau.
E. coli competent cells BL21 (DE3) were transformed with the pET28a vector (Novagen, Inc., Madison, WI, USA) carrying the DNA sequence of Aβ42. Because of the addition of the initiation codon ATG in front of both genes, the overexpressed peptide contains an additional methionine residue at its N terminus. For overnight culture preparation, an amount of 10 mL of the M9 minimal medium containing 50 μg·mL^−1 of kanamycin was inoculated with a colony of BL21 (DE3) bearing the plasmid to be expressed at 37 °C. […]
Th-S (T1892) and other chemical reagents were purchased from Sigma (St. Louis, MO, USA). […] Th-S fluorescence and absorbance were tracked using a DTX 800 plate reader Multimode Detector equipped with a Multimode Analysis Software (Beckman-Coulter, Indianapolis, IN, USA). […] A filter of 535/25 nm was also used for the absorbance determination. To normalize the Th-S fluorescence as a function of the bacterial concentration, OD600 was obtained using a Shimadzu UV-2401 PC UV–Vis spectrophotometer (Shimadzu, Japan). Note that the fluorescence normalisation was carried out considering 100% of the Th-S fluorescence of the bacterial cells expressing the peptide or protein in the absence of the drug and 0% of the Th-S fluorescence of the bacterial cells not expressing the peptide or protein. […]

The target in assay [2] is T2, Electrophorus electricus AChE (EeAChE) (Electrophorus electricus, UniProt O42275).
T2 construct: purchased Sigma-Aldrich (Milan, Italy)
T2 sequence (O42275 24-633): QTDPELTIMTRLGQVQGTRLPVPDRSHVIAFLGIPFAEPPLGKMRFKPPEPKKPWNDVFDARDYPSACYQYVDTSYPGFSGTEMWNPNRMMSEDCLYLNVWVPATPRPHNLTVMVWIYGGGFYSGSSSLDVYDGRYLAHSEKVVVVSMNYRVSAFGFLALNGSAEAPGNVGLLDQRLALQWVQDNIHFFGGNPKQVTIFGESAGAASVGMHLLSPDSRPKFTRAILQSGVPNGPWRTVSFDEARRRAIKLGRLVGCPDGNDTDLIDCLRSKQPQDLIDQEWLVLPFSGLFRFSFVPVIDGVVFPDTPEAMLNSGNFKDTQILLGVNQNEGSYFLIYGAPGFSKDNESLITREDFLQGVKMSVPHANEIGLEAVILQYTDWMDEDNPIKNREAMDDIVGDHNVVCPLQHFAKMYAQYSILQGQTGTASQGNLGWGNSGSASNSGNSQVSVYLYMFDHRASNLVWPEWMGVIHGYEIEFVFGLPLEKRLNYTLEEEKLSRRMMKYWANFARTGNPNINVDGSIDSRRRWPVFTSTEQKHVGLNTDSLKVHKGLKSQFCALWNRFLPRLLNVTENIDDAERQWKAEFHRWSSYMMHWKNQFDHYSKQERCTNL
In words: Ellman's spectrophotometric method, percent inhibition of EeAChE (zero time and after 1 h incubation). Format: biochemical. On the procedure: Regarding the synthesized compounds enzymatic inhibition studies were carried out on Electrophorus electricus AChE (EeAChE) and equine BChE (eqBChE), according to Ellman’s spectrophotometric method.
All other chemical and biological reagents and solvents used were of the highest analytical, commercially available grade. The water, utilized for the preparation of the phosphate buffer and of the solutions of compounds, was distilled and filtered on nylon membrane filters with 0.2 μm pore size with the Millipore® Filtration apparatus before each use. Micropipettes Labmate (BRAND Dig. 10–100 μL; Dig. 100–1000 μL; Dig. 0.1–2 μL) and Transferpette (HIGH TECH LAB LM200: 20–200 μL; LM5000: 1000–5000 μL) were used to collect the samples. The assays were carried out by double beam UV–Vis Lambda 40 Perkin Elmer spectrophotometer, using optical polystyrene cuvettes (10 × 10 × 45 mm, 340–800 nm optical transparency), each measure was repeated at least in triplicate. […] Vivaspin® 2 Sartorius, with a membrane of 3000 MWCO (molecular weight cutoff) consisting of polyethersulfone (PES), cellulose triacetate (CTA) and hydrosart, was used for the ultrafiltration procedures. An ALC PK110 bench-top centrifuge was used for centrifugation. The spectrophotometric method of Ellman, with minor modifications, was used to evaluate the inhibition of cholinesterase enzymes. […] EeAChE and eqBChE were periodically tested to evaluate the effective enzymatic activity.
An amount of 3.0 mL of a solution in 0.1 M phosphate buffer (pH = 7.4) containing DTNB (0.25 mM) and EeAChE (0.083 UmL^−1) or eqBChE (0.083 UmL^−1) were placed in a polystyrene cuvette of 1.0 cm path length; 1 µL of a solution in DMSO of the tested compound was added to obtain in cuvette concentration range 9 µM–0.09 µM. With this solution the blank was made.
Each experiment was repeated at least in triplicate.
The cuvettes were prepared consecutively at intervals of 3 min to allow equal incubation times.
(DTNB colorimetry detects thiols as they appear.)

Setting [3] is: read-out: % Inhibition vs. EeAChE ± SD, [I] 9 µM, 0.0833 U/mL enzyme, 100 µM acetylthiocholine.

The structures appear in SMILES notation. Like-named read-outs stand apart in the source and are kept apart here.

T1 sequence (P05067 672-713 limits assumed): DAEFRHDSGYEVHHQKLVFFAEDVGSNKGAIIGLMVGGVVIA

The term inhibition denotes the relative decrease from the control value, in per cent. `O=C(NCCCCCCNc1ccccn1)c1ccccc1` [Compound 12, N-(6-(pyridin-2-ylamino)hexyl)benzamide]: the inhibition at 100 µM in assay [1] worked out at 11.9%. Further, the “% Inhibition vs. EeAChE ± SD” value in assay [2] ([I] 9 µM, 0.0833 U/mL enzyme, 100 µM acetylthiocholine) is recorded as 34.0 ± 2.1%. Further, the inhibition at 9 µM in assay [2] (setting [3]) is 34%.

The compound `O=C(Cc1ccc(Oc2ccccc2)cc1)NCCCCCCNc1ccccn1` [Compound 14, 2-(4-phenoxyphenyl)-N-(6-(pyridin-2-ylamino)hexyl)acetamide] had an inhibition at 100 µM in assay [1] of 13.3%. The inhibition at 9 µM in assay [2] (setting [3]) worked out at 42.6 ± 1.4%.

Compound `O=C(NCCCCCCNc1ccccn1)Oc1ccccc1` [Compound 18, Phenyl (6-(pyridin-2-ylamino)hexyl)carbamate] gave an inhibition at 100 µM in assay [1] of 23.1%. The inhibition at 9 µM in assay [2] (1 h, read-out: % Inhibition vs. EeAChE ± SD, [I] = 9 µM, t = 1 h incubation at 25 °C) stood at 41.6 ± 0.7%.

Source of the values: article PMC9227096, “Design, Synthesis, and In Vitro, In Silico and In Cellulo Evaluation of New Pyrimidine and Pyridine Amide and Carbamate Derivatives as Multi-Functional Cholinesterase Inhibitors” (Pharmaceuticals, 2022).
